Reference: publication PMC9545474, “Anticancer Water‐Soluble Organoruthenium Complexes: Synthesis and Preclinical Evaluation” (Chembiochem, 2022)

How the values were obtained:
Assay type in all cases: cell-based, human
[1] = tested on: A2780cisR cisplatin-resistant ovarian cancer cells; test: 24-hour MTT chemosensitivity assay with 72-hour recovery, A2780cisR; conditions: for IC50: 24 h exposure, 72 h recovery, MTT, read-out: IC50 values ±SD, A2780cisR; for Selectivity index (SI), A2780cisR: mean IC50 PNT2 / mean IC50 A2780cisR
Method: Chemosensitivity studies were undertaken using a 24‐hour MTT assay, with a 72‐hour recovery period. The IC50 values were determined against ovarian A2780 (cisplatin‐sensitive) and A2780cisR (cisplatin‐resistant) cancer cell lines, non‐small‐cell lung H460 cancer cell line, and normal prostate PNT2 cell line, exposed to each of compounds 4–8, cisplatin or the phosphine ligands (Table 1 and S4, Figures S29–S31). […] This is unusual but can be related to solubility issues not visible for the naked eye and thus hindering its activity in cells. […] When tested on their own, the phosphine ligands are not active below 100 μM for all four cell lines. […] This therefore prevents comparison with the well‐known RAPTA family, and more especially with RAPTA−C which bears a PTA ligand and a p‐cym ligand, making this complex relatively similar in terms of geometry with complex 4.[21] […] This confirms the interest of the sulfur coordinating atom in terms of cytotoxicity for organoruthenium complexes.[23]
Chemosensitivity assay: In vitro chemosensitivity tests were performed against A2780, A2780cisR, PNT2 and H460 cells. Cells were routinely maintained as monolayer cultures in RPMI 1640 medium supplemented with 10 % foetal calf serum, penicillin (100 I.U./mL) and streptomycin (100 μg/mL), sodium pyruvate (1 mM) and L‐glutamine (2 mM). For chemosensitivity studies, cells were seeded in 96‐well plates at a concentration of 7.5×10^3 cells per well and the plates were incubated for 24 h at 37 °C and a 5 % CO2 humidified atmosphere prior to drug exposure.
Complexes were dissolved in either DMSO (complexes 4, 5, and 8) or PBS (complexes 6 and 7) to provide stock solutions which were further diluted with media to provide a range of final concentrations. Drug‐media solutions were added to cells (the final concentration of DMSO was less than 1 % (v/v) in all cases) and incubated for 24 h at 37 °C and a 5 % CO2 humidified atmosphere. The drug‐media solution was removed from the wells and the cells were washed with PBS (100 μL, twice) and 200 μL of complete fresh media were added to each well. The plates were further incubated for 72 h at 37 °C and a 5 % CO2 humidified atmosphere to allow for a period of recovery. 3‐(4,5‐dimethylthiazol‐2‐yl)‐2,5‐diphenyltetrazolium bromide (MTT) (40 μL, 2.5 mg/mL) was added to each well and plates were incubated for 2 h. All solutions were then removed and 100 μL of DMSO was added to each well in order to dissolve the purple formazan crystals. A Thermo Scientific Multiskan EX microplate photometer was used to measure the absorbance in each well at 570 nm. Cell survival was determined as the absorbance of treated cells divided by the absorbance of controls and expressed as a percentage. The IC50 values were determined from plots of % survival against drug concentration. Each experiment was repeated in triplicates of triplicates and a mean value was obtained and stated as IC50 (μM) ± SD. Untreated cells were used as a negative control, and cells treated with cisplatin were used as a positive control.

[2] = tested on: A2780 cells; test: ROS detection, DCFH2-DA assay by flow cytometry; conditions: A2780, five hours, IC50 concentrations
Method: To confirm the hypothesis of induction of oxidative stress by complexes 6 and 8, based on the potential mechanism of action observed for complex 3, the intracellular production of ROS in A2780 cells exposed to the complexes was investigated using the fluorescent DCFH2‐DA assay with the analysis performed by flow cytometry.
ROS detection: Flow cytometry analysis of total induction of ROS in A2780 cells caused by exposure to complexes 6 and 8 was carried out using DCFH2‐DA assay. Briefly, 1.0×10^6 cells per well were seeded in a 6‐well plate and incubated for 24 at 37 °C and a 5 % CO2 humidified atmosphere. After removal of the media, cells were washed with PBS and loaded with DCFH2‐DA dye (20 μM, in basal RPMI). […] Cells were washed with PBS and harvested with trypsin. Cells were analysed in a BD Accuri C6 Plus System Flow Cytometer using Ex/Em: 490/525 nm for the oxidative stress detection. Data was analysed using the BD Accuri C6 Plus software.

[3] = tested on: A2780 cells; test: JC-10 mitochondrial membrane potential assay by flow cytometry; conditions: A2780, 24 h, complexes at IC50, cisplatin 6.5 µM
Source text: A membrane potential sensitive fluorescent probe JC‐10 was used to determine whether the apoptosis induced by complexes 6 and 8 is accompanied by changes in the mitochondrial membrane potential (ΔΨm) of A2780 cells. JC‐10 aggregates inside mitochondria and emits orange fluorescence. Following membrane […], JC‐10 is disaggregated and this in turn reduces the orange fluorescence.
Figure 8 Effect of complexes 6 and 8 on the mitochondrial membrane potential. […] The percentages of cells with depolarised mitochondrial membrane potential were assessed by flow cytometry after staining with JC‐10. The data are expressed as the means±SD of the three individual experiments.
Mitochondrial membrane potential assay: Analysis of the changes of mitochondrial potential in A2780 cells after exposure to complexes 6 and 8 was carried out using the JC‐10 mitochondrial membrane potential assay kit (abcam®) according to the manufacturer's instructions. Briefly, 1.0×10^6 cells per well were seeded in a 6‐well plate and incubated for 24 at 37 °C and a 5 % CO2 humidified atmosphere. […] Supernatants were removed by suction, and each well was washed with PBS before detaching the cells using trypsin. Staining of the samples was done in tubes protected from light, incubating for 30 min in the dark at room temperature. Samples were immediately analysed on a BD Accuri C6 Plus System Flow Cytometer, reading the reduction of fluorescence in the FL2 channel.

(η^6‐p‐cymene)(TPPTS)Ru(Mnt) [Complex 6]
IC50 [1]: 1300 ± 10 nM
Selectivity factor (cross-resistance, resistance factor RF) ([1]; IC50 A2780cisR / IC50 A2780): 2.2
Selectivity index (SI), A2780cisR [1]: 1.23
ROS levels in treated cells compared to untreated cells [2]: significant increase of ROS levels
% cell population with high orange fluorescence ([3]; Experiment 1): 60.4%
% cell population with low orange fluorescence ([3]; Experiment 1): 39.6%
% cell population with high orange fluorescence ([3]; Experiment 2): 55.5%
% cell population with low orange fluorescence ([3]; Experiment 2): 44.5%
% cell population with high orange fluorescence ([3]; Experiment 3): 62.7%
% cell population with low orange fluorescence ([3]; Experiment 3): 37.3%
% cell population with high orange fluorescence ([3]; Summary, mean values ± SD): 59.5 ± 3.7%
% cell population with low orange fluorescence ([3]; Summary, mean values ± SD): 40.5 ± 3.7%

Cc1ccc(C(C)C)cc1.N#CC1=C(C#N)[S][Ru-]([P+](c2ccccc2)(c2ccccc2)c2ccccc2)[S]1 [Complex 8, (η^6‐p‐cymene)(PPh3)Ru(Mnt)]
IC50 [1]: 980 ± 60 nM
Selectivity index (SI), A2780cisR [1]: 2.45
ROS levels in treated cells compared to untreated cells [2]: significant increase of ROS levels
% cell population with high orange fluorescence ([3]; Experiment 1): 81.9%
% cell population with low orange fluorescence ([3]; Experiment 1): 18.1%
% cell population with high orange fluorescence ([3]; Experiment 2): 82.5%
% cell population with low orange fluorescence ([3]; Experiment 2): 17.5%
% cell population with high orange fluorescence ([3]; Experiment 3): 80.0%
% cell population with low orange fluorescence ([3]; Experiment 3): 20.0%
% cell population with high orange fluorescence ([3]; Summary, mean values ± SD): 81.5 ± 1.3%
% cell population with low orange fluorescence ([3]; Summary, mean values ± SD): 18.5 ± 1.3%
